Assay results as given in paper PMC11477621, “Design, Synthesis, and Biological Evaluation of HDAC Inhibitors Containing Natural Product-Inspired N-Linked 2-Acetylpyrrole Cap” (Molecules, 2024).

Assays:
HDAC1 = biological target: T1, HDAC1 (Homo sapiens, UniProt Q13547); assay: HDAC inhibition assay (HTRF), HDAC1; type: biochemical; details: read-out: IC50 ± SD, HDAC1;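 note: HTRF detection with streptavidin-XL665 plus Eu(K)-labelled anti-H3K9me0 antibody, two independent runs with duplicate wells per concentration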
T1 construct: purchased BPS #50001
T1 sequence (Q13547 whole entry): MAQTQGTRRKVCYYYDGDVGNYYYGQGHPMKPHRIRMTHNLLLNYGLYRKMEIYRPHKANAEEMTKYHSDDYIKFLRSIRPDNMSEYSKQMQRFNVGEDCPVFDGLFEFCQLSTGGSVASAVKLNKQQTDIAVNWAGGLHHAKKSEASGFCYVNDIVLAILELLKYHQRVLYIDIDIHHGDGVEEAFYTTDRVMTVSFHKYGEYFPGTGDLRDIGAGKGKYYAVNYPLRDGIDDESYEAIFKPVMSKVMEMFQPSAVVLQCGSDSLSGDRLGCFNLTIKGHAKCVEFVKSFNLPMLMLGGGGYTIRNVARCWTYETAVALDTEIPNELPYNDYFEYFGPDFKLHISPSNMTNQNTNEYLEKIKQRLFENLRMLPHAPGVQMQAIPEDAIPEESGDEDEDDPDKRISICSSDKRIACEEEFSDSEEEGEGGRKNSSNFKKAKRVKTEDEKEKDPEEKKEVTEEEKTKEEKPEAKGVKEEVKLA
Description: (§3) Then, SA-XL665 (#610SAXLG, Cisbio, Bedford, MA, USA) and anti-H3K9me0-Eu(K) (#61KB0KAD, Cisbio, USA) were added. […] The IC50 value of the compounds was calculated using GraphPad 7.0 software. Each set of experiments was independently repeated twice, with two replicate wells per concentration each time.

HDAC6 = biological target: T2, HDAC6 (Homo sapiens, UniProt Q9UBN7); assay: HDAC inhibition assay (HTRF), HDAC6; type: biochemical; details: read-out: IC50 ± SD, HDAC6
T2 construct: purchased BPS #50006
T2 sequence (Q9UBN7 1-1215): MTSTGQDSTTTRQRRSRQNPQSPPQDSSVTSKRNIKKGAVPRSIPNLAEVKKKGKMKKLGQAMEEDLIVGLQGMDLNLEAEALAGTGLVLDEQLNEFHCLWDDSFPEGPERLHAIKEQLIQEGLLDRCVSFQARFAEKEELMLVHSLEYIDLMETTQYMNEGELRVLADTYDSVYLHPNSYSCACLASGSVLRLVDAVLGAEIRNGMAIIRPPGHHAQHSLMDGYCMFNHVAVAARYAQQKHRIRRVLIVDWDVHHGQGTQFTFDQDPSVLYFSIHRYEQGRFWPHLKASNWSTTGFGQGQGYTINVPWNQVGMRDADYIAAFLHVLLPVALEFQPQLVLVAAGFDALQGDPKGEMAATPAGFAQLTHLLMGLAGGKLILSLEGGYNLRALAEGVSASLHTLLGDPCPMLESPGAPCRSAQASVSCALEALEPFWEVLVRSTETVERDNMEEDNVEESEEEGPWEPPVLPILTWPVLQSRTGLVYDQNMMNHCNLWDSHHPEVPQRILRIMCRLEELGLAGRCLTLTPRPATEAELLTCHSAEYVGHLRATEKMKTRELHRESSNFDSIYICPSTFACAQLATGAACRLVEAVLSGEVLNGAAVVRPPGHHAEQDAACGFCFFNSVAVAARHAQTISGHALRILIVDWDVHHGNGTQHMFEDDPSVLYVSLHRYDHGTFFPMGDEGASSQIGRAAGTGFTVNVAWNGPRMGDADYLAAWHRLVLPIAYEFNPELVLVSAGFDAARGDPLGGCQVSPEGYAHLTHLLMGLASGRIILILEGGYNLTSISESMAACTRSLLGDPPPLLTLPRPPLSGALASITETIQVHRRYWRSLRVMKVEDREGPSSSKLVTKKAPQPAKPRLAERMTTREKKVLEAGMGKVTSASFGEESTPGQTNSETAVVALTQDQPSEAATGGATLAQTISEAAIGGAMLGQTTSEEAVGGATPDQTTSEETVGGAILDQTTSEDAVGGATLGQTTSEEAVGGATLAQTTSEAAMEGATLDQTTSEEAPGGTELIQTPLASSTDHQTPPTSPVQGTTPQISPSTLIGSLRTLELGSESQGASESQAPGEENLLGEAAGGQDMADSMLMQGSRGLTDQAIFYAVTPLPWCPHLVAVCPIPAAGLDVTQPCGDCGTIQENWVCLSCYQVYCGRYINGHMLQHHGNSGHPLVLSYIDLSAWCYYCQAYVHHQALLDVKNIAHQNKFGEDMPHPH
Description: as §3

[1] = tested on: HCT-116 (human colon cancer cell line); assay: CCK8 cell viability assay, HCT-116; type: cell-based; details: 72 h, read-out: Proliferation inhibition IC50 ± SD, HCT-116
Description: (§1) The CCK8 (#AC11L054, Life ilab, Shanghai, China) method was used to detect the cells’ proliferation. Cells were seeded into a 96-well culture plate at an appropriate density. […] IC50 values were estimated using the four-parameter method. Each set of experiments was repeated independently three times with three replicate wells per concentration each time.

[2] = tested on: HL-60 (human leukemia cell line); assay: CCK8 cell viability assay, HL-60; type: cell-based; details: 72 h, read-out: Proliferation inhibition IC50 ± SD, HL-60
Description: as §1

[3] = tested on: RPMI-8226 (human myeloma cell line); assay: CCK8 cell viability assay, RPMI-8226; type: cell-based; details: 72 h, read-out: Proliferation inhibition IC50 ± SD, RPMI-8226
Description: as §1

RPMI-8226 cells = assay: Apoptosis assay, Annexin V-FITC/PI flow cytometry; type: cell-based, human; details: 1, 3 and 10 μM, 48 h
From the text: Annexin V-FITC and PI double-staining detection kits were used to determine apoptotic cells. […] Data results were obtained from three independent experiments.

HDAC3 = HDAC3 (Homo sapiens, UniProt O15379); assay: HDAC inhibition assay (HTRF), HDAC3;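 note: HTRF detection with streptavidin-XL665 and a Eu cryptate-labelled antibody against unmodified H3K9, two independent runs with duplicate wells at each concentration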
Sequence of HDAC3 (O15379 whole entry): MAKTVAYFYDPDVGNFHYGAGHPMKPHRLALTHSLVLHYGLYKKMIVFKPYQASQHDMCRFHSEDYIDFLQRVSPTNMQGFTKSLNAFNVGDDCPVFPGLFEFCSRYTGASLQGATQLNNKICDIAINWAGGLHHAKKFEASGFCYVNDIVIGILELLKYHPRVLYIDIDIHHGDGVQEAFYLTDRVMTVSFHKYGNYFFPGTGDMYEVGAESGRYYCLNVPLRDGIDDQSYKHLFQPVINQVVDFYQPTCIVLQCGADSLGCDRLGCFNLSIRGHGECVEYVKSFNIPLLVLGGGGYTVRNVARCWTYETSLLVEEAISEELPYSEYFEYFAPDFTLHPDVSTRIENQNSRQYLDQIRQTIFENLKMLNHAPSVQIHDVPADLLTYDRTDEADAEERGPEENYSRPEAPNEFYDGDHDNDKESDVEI
Sequence of HDAC3 (Q9Y618 395-489 partner limits assumed): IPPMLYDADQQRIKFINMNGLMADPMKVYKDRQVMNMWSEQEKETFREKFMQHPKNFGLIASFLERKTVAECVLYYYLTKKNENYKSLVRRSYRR
Description: as §3

[4] = tested on: Ac-histone H3 in RPMI-8226 cells; assay: Western blot of Ac-histone H3; type: cell-based, human; details: 24 h; for Histone H3 acetylation level: 10 μM
Description: (§2) RPMI-8226 cells were seeded in six-well plates and treated with compounds for 24 h. Cells were lysed with 1× SDS loading buffer (50 mM Tris pH 6.8, 100 mM DTT, 2% SDS, 0.1% bromophenol blue, 10% glycerol), and then centrifuged at 12,000 rpm for 5 min at 4 °C. Cell extracts were probed with antibodies Ac-Tubulin (#5335T, CST, Kansas City, MO, USA), α-Tubulin (#2144S, CST, Kansas City, MO, USA), AcH3 (#ab39139, active motif, Carlsbad, CA, USA), Histone H3 (#17168-1-AP, Proteintech, Chicago, IL, USA), GAPDH (#60004-1-1g, Proteintech, Chicago, IL, USA), Goat Anti-Mouse IgG, H&L Chain Specific Peroxidase Conjugate (#401215, Calbiochem, Darmstadt, Germany), Goat Anti-Rabbit IgG, or H&L Chain Specific Peroxidase Conjugate (#401353, Calbiochem, Germany), then detected using Bio-RAD power pal Basic (#041BR66615, BioRad Laboratories, Hercules, CA, USA), Bio-RAD Mini-PROTEAN Tetrade System (#IEC/EN 61010-1, BioRad Laboratories, Hercules, CA, USA), or Bio-RAD Chemi Touch Imagin (BioRad Laboratories, Hercules, CA, USA).

[5] = tested on: Ac-tubulin in RPMI-8226 cells; assay: Western blot of Ac-tubulin; type: cell-based, human; details: 24 h; for Ac-α-tubulin protein expression: tested concentrations
Description: as §2

[6] = Pharmacokinetic study in male ICR mice; type: in vivo; details: mouse, plasma
Description: Specific procedures were referred to the reported method. ICR mice (n = 6) were fasted for 12 h before administration and remained fasting for 2 h. The animal room environment was controlled (target conditions: temperature 18 to 29 °C, relative humidity 30 to 70%). Temperature and relative humidity were monitored daily. An electronic time-controlled lighting system was used to provide a 12 h light/12 h dark cycle. Compound 20 was administered at doses of 5 mg/kg (po) and 1 mg/kg (iv). The time points for blood sample collection were 0.25, 0.50, 1.00, 2.00, 4.00, 8.00, and 24 h post dose for the po-administrated group, and the time points were 0.05, 0.25, 0.75, 2.00, 4.00, 8.00, and 24 h for the iv group. For each point, 20 μL of plasma were transferred into a clean tube, 200 μL of MeOH/ACN (50/50, v/v) containing IS were added, and they were thoroughly vortexed by a vortex mixer for 1 min. The mixture was centrifuged at 15000 rpm for 5 min, and then 20 μL of supernatant was mixed with 20 μL of water for the analysis by LC-MS.

[7] = ref [46],[47]; cited from earlier work

| SMILES | IC50 (HDAC1) [µM] | IC50 (HDAC6) [µM] | IC50 [1] [µM] | IC50 [2] [µM] | IC50 [3] [µM] | IC50 (HDAC3) [µM] | Promotion of RPMI-8226 cell apoptosis (RPMI-8226 cells) | Histone H3 acetylation level [4] | Ac-α-tubulin protein expression [5] | F% (oral bioavailability) [7] [%] | further results |
| --- | --- | --- | --- | --- | --- | --- | --- | --- | --- | --- | --- |
| O=C(CCCCCCn1cccc1C(=O)C(F)(F)F)NO [Compound 5c, N-hydroxy-7-(2-(2,2,2-trifluoroacetyl)-1H-pyrrol-1-yl)heptanamide] | 0.0368 ± 0.00587 | 0.00422 ± 0.0001 | 12.3 ± 2.2 | 8.56 ± 1.47 | 11.9 ± 1.58 | 0.0266 ± 0.0019 | promote RPMI-8226 cell apoptosis in a dose-dependent manner |  |  |  |  |
| O=C(CCCCCCC(=O)Nc1ccccc1)NO [SAHA, vorinostat] |  |  |  |  |  |  |  |  |  | 8.33 |  |
| Cc1[nH]c2ccccc2c1CCNCc1ccc(/C=C/C(=O)NO)cc1 [panobinostat] |  |  |  |  |  |  |  |  |  | 4.62 |  |

The next lines start with results.

| IC50 (HDAC1) [µM] | IC50 (HDAC6) [µM] | IC50 [1] [µM] | IC50 [2] [µM] | IC50 [3] [µM] | IC50 (HDAC3) [µM] | SMILES | Promotion of RPMI-8226 cell apoptosis (RPMI-8226 cells) | Histone H3 acetylation level [4] | Ac-α-tubulin protein expression [5] | F% (oral bioavailability) [7] [%] | further results |
| --- | --- | --- | --- | --- | --- | --- | --- | --- | --- | --- | --- |
| 0.8 ± 0.0504 | 0.0337 ± 0.0148 | 8.63 ± 0.82 | 8.16 ± 1.96 | 8.85 ± 2.3 | 0.457 ± 0.173 | CC(=O)c1cccn1Cc1ccc(/C=C/C(=O)NO)cc1 [Compound 14, (E)-3-(4-((2-acetyl-1H-pyrrol-1-yl)methyl)phenyl)-N-hydroxyacrylamide] | promote RPMI-8226 cell apoptosis in a dose-dependent manner |  |  |  | Acetylated histone H3 compared to compound 5c ([4]; same concentration): induced more acetylated tubulin and acetylated histone H3; Acetylated tubulin compared to compound 5c ([5]; same concentration): induced more acetylated tubulin |
| 1.1 ± 0.144 | > 10 | 13.2 ± 2.48 | 8.32 ± 0.37 | 10 ± 0.52 | 1.39 ± 0.373 | CC(=O)c1cccn1Cc1cn(CCc2ccc(C(=O)Nc3ccccc3N)cc2)nn1 [Compound 19a, 4-(2-(4-((2-Acetyl-1H-pyrrol-1-yl)methyl)-1H-1,2,3-triazol-1-yl)ethyl)-N-(2-aminophenyl)benzamide] | promote RPMI-8226 cell apoptosis in a dose-dependent manner | increased histone H3 acetylation levels comparable to MS-275 | no discernible effect |  |  |
| 0.441 ± 0.0782 | > 10 | 9.08 ± 0.58 | 4.71 ± 0.24 | 2.89 ± 0.43 | 1.08 ± 0.229 | CC(=O)c1cccn1CCc1ccc(C(=O)Nc2ccccc2N)cc1 [Compound 20, 4-(2-(2-Acetyl-1H-pyrrol-1-yl)ethyl)-N-(2-aminophenyl)benzamide] | promote RPMI-8226 cell apoptosis in a dose-dependent manner | increased histone H3 acetylation levels comparable to MS-275 | no discernible effect |  | AUC(0-inf) ([6]; iv, 1 mg/kg): 0.163 ± 0.003 µg·h/mL; AUC(0-t) ([6]; iv, 1 mg/kg): 0.163 ± 0.003 µg·h/mL; MRT inf ([6]; iv, 1 mg/kg): 10.9 ± 0.36 min; clearance ([6]; iv, 1 mg/kg): 6.12 ± 0.12 L/h/kg; half-life ([6]; iv, 1 mg/kg): 11.5 ± 0.72 min; Vd ([6]; iv, 1 mg/kg, read-out: Vss): 1.11 ± 0.052 L/kg; AUC(0-inf) ([6]; po, 5 mg/kg): 0.0472 ± 0.0266 µg·h/mL; AUC(0-t) ([6]; po, 5 mg/kg): 0.0407 ± 0.0218 µg·h/mL; Cmax ([6]; po, 5 mg/kg): 0.0483 ± 0.0311 µg/mL; MRT inf ([6]; po, 5 mg/kg): 110 ± 25.2 min; Tmax ([6]; po, 5 mg/kg): 20 ± 8.64 min; half-life ([6]; po, 5 mg/kg): 93 ± 30.6 min; bioavailability ([6]; po, 5 mg/kg, read-out: F (oral bioavailability)): 5% |
